Like-named read-outs stand apart in the source and are kept apart here.
Experiments:
[1] = tested on: DA receptors in the brain; experiment: Block of apomorphine-induced hyperactivity in the rat; assay type: in vivo, Male Sprague-Dawley rats; settings: for Block of apomorphine ED50, hyperactivity: i.p., 60 min prior to apomorphine HCl 1 mg/kg s.c.; for potency to block apomorphine, ED50 Hyperactivity: p.o., rat
Excerpt: There are presently several techniques available to study DA receptor blockage in the brain in vico. One method is based on the ability of antipsychotic drugs to block the behavioural effects induced by the DA agonist apomorphine in the rat. […] The stereotypies (chewing, […], biting) appear mainly to be induced via activation of DA receptors linked to the neostriatal DA system (J. Psychiat. […] Directly after injection, the animals were placed in the cages, one in each cage. Scoring of the stereotypies were performed by two separate methods. […] The strength of the stereotype was scored on a 0-3 scale as follows: In the second system the number of animals displaying hyperactivity caused by apomorphine were scored. Each group consisted of 6-8 animals. Saline controls were always run simultaneously.

[2] = target: T1, DA receptors in the brain (Rattus norvegicus, UniProt P61169); experiment: Block of apomorphine-induced stereotypies in the rat (0-3 scale); assay type: in vivo, Male Sprague-Dawley rats
T1 construct: from tissue; host or cells: brain of live male Sprague-Dawley rats (in vivo behavioural test)
T1 sequence (P61169 whole entry): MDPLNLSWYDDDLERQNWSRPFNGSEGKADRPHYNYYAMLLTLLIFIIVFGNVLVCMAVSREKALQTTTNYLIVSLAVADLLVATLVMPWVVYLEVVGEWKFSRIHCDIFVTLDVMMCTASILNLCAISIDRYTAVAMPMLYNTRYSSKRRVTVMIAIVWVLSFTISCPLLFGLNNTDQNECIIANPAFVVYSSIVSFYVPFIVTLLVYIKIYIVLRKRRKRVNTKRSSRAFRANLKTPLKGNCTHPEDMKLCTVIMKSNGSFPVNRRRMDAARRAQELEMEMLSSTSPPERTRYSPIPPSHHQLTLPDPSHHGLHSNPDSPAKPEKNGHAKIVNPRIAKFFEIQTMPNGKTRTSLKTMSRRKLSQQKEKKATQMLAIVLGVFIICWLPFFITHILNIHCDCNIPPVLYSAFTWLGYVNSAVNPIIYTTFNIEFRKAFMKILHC
Procedure: There are presently several techniques available to study DA receptor blockage in the brain in vico. One method is based on the ability of antipsychotic drugs to block the behavioural effects induced by the DA agonist apomorphine in the rat.
Directly after injection, the animals were placed in the cages, one in each cage. Scoring of the stereotypies were performed by two separate methods. […] The strength of the stereotype was scored on a 0-3 scale as follows:
3 Continous sniffing. Chewing, biting and licking.
In the second system the number of animals displaying hyperactivity caused by apomorphine were scored. Each group consisted of 6-8 animals. Saline controls were always run simultaneously. […] The ED50 were calculated from log dose-response curves by the method of least squares from 4-6 dose levels with 6-8 animals per dose level.

[3] = in vivo; cited from earlier work
[4] = experimental animals; cited from earlier work
[5] = po, rat, read-out: potency to block apomorphine, ED50 Stereotypies
[6] = rat, ip, 60 min prior to apomorphine HCl 1 mg/kg s.c., read-out: Block of apomorphine ED50, stereotypes

Row | SMILES | Block of apomorphine ED50, hyperactivity [1] [µmol/kg] | potency to block apomorphine, ED50 Hyperactivity [1] [µmol/kg] | ED50 [2, 5] [µmol/kg] | ED50 [2, 6] [µmol/kg] | further results
1 | CCN1CCCC1CNC(=O)c1c(O)c(Br)cc(Br)c1OC (single isomer, unassigned) [FLA 659 (-)] | 0.40 | 3.2 | 12 | 2.3 | 
2 | CCN1CCCC1CNC(=O)c1c(O)ccc(Br)c1OC (stereo not drawn) [FLA 908] | 1.1 |  |  | 10 | 
3 | CCN1CCCC1CNC(=O)c1c(OC)ccc(Br)c1OC(C)=O (stereo not drawn) [FLA 903] |  |  |  | 0.53 | 
4 | CCN1CCCC1CNC(=O)c1c(O)c(Cl)cc(Cl)c1OC (single isomer, unassigned) [FLA 870 (-)] | 0.11 |  |  |  | Block of apomorphine ED50, stereotypes ([2]; i.p., 60 min prior to apomorphine HCl 1 mg/kg s.c.): 2.4 µmol/kg
5 | CCN1CCCC1CNC(=O)c1c(OC)ccc(Br)c1O (single isomer, unassigned) [FLA 797 (-)] | 0.035 | 3 | 22 | 0.38 | 
6 | CCCN1CCCC1CNC(=O)c1c(OC)ccc(Br)c1O (single isomer, unassigned) [FLA 889 (-)] | 0.27 |  |  | 0.75 | 
7 | CCN1CCCC1CNC(=O)c1c(OC)ccc(Br)c1O (stereo not drawn) [FLA 797] | 0.22 |  |  | 1.1 | 
8 | CCOc1ccc(Br)c(O)c1C(=O)NCC1CCCN1CC (single isomer, unassigned) [901(-)] |  | 3.0 | 34 |  | 
9 | CCN1CCCC1CNC(=O)c1cc(S(N)(=O)=O)ccc1OC (stereo not drawn) [Sulpiride, reference compound] | 50 |  |  |  | extrapyramidal side effects [3]: weak extrapy ramidal side effects; catalepsy [4]: weak catalepsy; activity after oral administration ([2]; p.o., rat, apomorphine stereotypies and hyperactivity, in words): lost all activity; ED50 ([2]; rat, ip, read-out: Block of apomorphine ED50, stereotypes): 203 µmol/kg
10 | CCOc1ccc(Br)c(O)c1C(=O)NCC1CCCN1CC (stereo not drawn) [FLA 901] | 1.1 |  |  | 3.4 | 
11 | CCN1CCCC1CNC(=O)c1c(OC)ccc(Cl)c1O (single isomer, unassigned) [FLA 814 (-)] | 0.14 | 4.4 | 25 | 1.1 | 

From patent publication US4789683A, “Benzamido-derivatives” (priority 1981, dated 1988)
